This note sets out measurements from patent US8822505B2, “Azetidine derivatives” (Hoffmann-La Roche Inc., priority 2012, dated 2014).

One assay has as its target human Cat L (Homo sapiens (Human), UniProt P07711). In words: Cathepsin enzyme inhibition assay (human Cat L). The settings on record: enzyme 1 nM, substrate Z-Val-Val-Arg-AMC 20 μM. Type of assay: biochemical. On the procedure: (§1) Cathepsin Enzyme Inhibition Assay
(§2) Enzyme activity is measured by observing the increase in fluorescence intensity caused by cleavage of a peptide substrate containing a fluorophore whose emission is quenched in the intact peptide.
(§3) Assay buffer: 100 mM potassium phosphate pH 6.5, EDTA-Na 5 mM, Triton X-100 0.001%, DTT 5 mM.
(§4) Enzymes (all at 1 nM): human and mouse Cathepsin S, Cat K, Cat B, Cat L.
(§5) Substrate (20 μM): Z-Val-Val-Arg-AMC, except for Cat K which uses Z-Leu-Arg-AMC (both from Bachem).
Excitation 360 nm, Emission 465 nm.
Enzyme is added to the substance dilutions in 96-well microtitre plates and the reaction is started with substrate. Fluorescence emission is measured over 20 minutes, during which time a linear increase is observed in the absence of inhibitor. IC50 are calculated by standard methods.
Inhibition of human Cat S, mouse Cat S, human Cat K, human Cat B, human Cat L and mouse Cat L have been measured separately. The results obtained for human Cat S and L for representative compounds of the invention are expressed in the following table in μM.

For a further assay, the target named is human Cat S (Homo sapiens (Human), UniProt P25774). In words: Cathepsin enzyme inhibition assay (human Cat S). The assay is classed as biochemical. To be noted: enzyme 1 nM, substrate Z-Val-Val-Arg-AMC 20 μM. The procedure: as §1, §2, §3, §4, §5
Enzyme is added to the substance dilutions in 96-well microtitre plates and the reaction is started with substrate. […] IC50 are calculated by standard methods.
Inhibition of human Cat S, mouse Cat S, human Cat K, human Cat B, human Cat L and mouse Cat L have been measured separately.

Where a name gives a salt, the structure may show the parent alone.

Chain of human Cat S (P25774 115-331): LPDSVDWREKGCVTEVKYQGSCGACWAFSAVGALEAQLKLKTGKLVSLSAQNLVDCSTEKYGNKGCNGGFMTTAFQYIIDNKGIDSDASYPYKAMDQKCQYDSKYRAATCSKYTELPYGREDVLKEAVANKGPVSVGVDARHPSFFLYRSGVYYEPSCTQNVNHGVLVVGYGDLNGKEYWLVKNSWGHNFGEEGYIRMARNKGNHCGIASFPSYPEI
Chain of human Cat L (P07711 114-333): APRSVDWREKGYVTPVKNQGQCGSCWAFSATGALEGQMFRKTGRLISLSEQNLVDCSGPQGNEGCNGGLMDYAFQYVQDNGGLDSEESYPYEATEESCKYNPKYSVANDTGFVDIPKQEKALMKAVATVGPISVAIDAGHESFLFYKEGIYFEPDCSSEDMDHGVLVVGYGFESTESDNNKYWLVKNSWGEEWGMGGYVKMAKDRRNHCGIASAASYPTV

Take `C[C@H](Oc1ccc(S(=O)(=O)[C@@H]2C[C@@H](C(=O)NC3(C#N)CC3)N(C(=O)C3(c4ncc(Cl)cc4F)CCN3)C2)c(Cl)c1)C(F)(F)F` (stereo partly drawn) [Example 37, (2S,4R)-1-[2-(5-Chloro-3-fluoro-pyridin-2-yl)-azetidine-2-carbonyl]-4-[2-chloro-4-((S)-2,2,2-trifluoro-1-methyl-ethoxy)-benzenesulfonyl]-pyrrolidine-2-carboxylic acid (1-cyano-cyclopropyl)-amide hydrochloride]: the IC50 is 58.5 nM against human Cat L (pH 6.5, hydrochloride) and 3.83 nM on human Cat S (pH 6.5, hydrochloride).

Consider `C[C@H](Oc1ccc(S(=O)(=O)[C@@H]2C[C@@H](C(=O)NC3(C#N)CC3)N(C(=O)C3(c4ncc(Cl)cc4F)CCN3)C2)c(Cl)c1)C(F)(F)F` (stereo partly drawn) [Example 38, (2S,4R)-1-[2-(5-Chloro-3-fluoro-pyridin-2-yl)-azetidine-2-carbonyl]-4-[2-chloro-4-((S)-2,2,2-trifluoro-1-methyl-ethoxy)-benzenesulfonyl]-pyrrolidine-2-carboxylic acid (1-cyano-cyclopropyl)-amide hydrochloride], for which the IC50 at human Cat L (pH 6.5, hydrochloride) was 317 nM; against human Cat S (pH 6.5, hydrochloride), 4.16 nM.

`C[C@H](Oc1ccc(S(=O)(=O)[C@@H]2C[C@@H](C(=O)NC3(C#N)CC3)N(C(=O)C3(c4ncc(Br)cc4F)CCN3)C2)c(Cl)c1)C(F)(F)F` (stereo partly drawn) [Example 39, (2S,4R)-1-[2-(5-Bromo-3-fluoro-pyridin-2-yl)-azetidine-2-carbonyl]-4-[2-chloro-4-((S)-2,2,2-trifluoro-1-methyl-ethoxy)-benzenesulfonyl]-pyrrolidine-2-carboxylic acid (1-cyano-cyclopropyl)-amide hydrochloride]: the IC50 against human Cat L (pH 6.5) amounted to 26.9 nM; against human Cat S (pH 6.5), 5.46 nM.

On to `Cc1cc(-c2ccc(S(=O)(=O)[C@@H]3C[C@@H](C(=O)NC4(C#N)CC4)N(C(=O)C4(c5ncc(Br)cc5F)CCN4C(=O)OC(C)(C)C)C3)c(Cl)c2)ccn1` (stereo partly drawn) [Example 42, 2-(5-Bromo-3-fluoro-pyridin-2-yl)-2-[(2S,4R)-4-[2-chloro-4-(2-methyl-pyridin-4-yl)-benzenesulfonyl]-2-(1-cyano-cyclopropylcarbamoyl)-pyrrolidine-1-carbonyl]-azetidine-1-carboxylic acid tert-butyl ester], for which the IC50 is 662 nM against human Cat L (pH 6.5) and 4.6 nM on human Cat S (pH 6.5).

As to `Cc1cc(-c2ccc(S(=O)(=O)[C@@H]3C[C@@H](C(=O)NC4(C#N)CC4)N(C(=O)C4(c5ncc(Cl)cc5F)CCN4)C3)c(Cl)c2)ccn1` (stereo partly drawn) [Example 43, (2S,4R)-1-[2-(5-Chloro-3-fluoro-pyridin-2-yl)-azetidine-2-carbonyl]-4-[2-chloro-4-(2-methyl-pyridin-4-yl)-benzenesulfonyl]-pyrrolidine-2-carboxylic acid (1-cyano-cyclopropyl)-amide hydrochloride], the concentration for half-maximal inhibition (IC50) against human Cat L (pH 6.5) worked out at 86.6 nM; against human Cat S (pH 6.5), 2.33 nM.

For `Cc1cc(-c2ccc(S(=O)(=O)[C@@H]3C[C@@H](C(=O)NC4(C#N)CC4)N(C(=O)C4(c5ncc(Br)cc5F)CCN4)C3)c(Cl)c2)ccn1` (stereo partly drawn) [Example 44, (2S,4R)-1-[2-(5-Bromo-3-fluoro-pyridin-2-yl)-azetidine-2-carbonyl]-4-[2-chloro-4-(2-methyl-pyridin-4-yl)-benzenesulfonyl]-pyrrolidine-2-carboxylic acid (1-cyano-cyclopropyl)-amide hydrochloride], the IC50 against human Cat L (pH 6.5) turned out to be 70.6 nM; against human Cat S (pH 6.5) it was 2.08 nM.

`Cn1cc(-c2ccc(S(=O)(=O)[C@@H]3C[C@@H](C(=O)NC4(C#N)CC4)N(C(=O)C4(c5ncc(Cl)cc5F)CCN4C(=O)OC(C)(C)C)C3)c(Cl)c2)cn1` (stereo partly drawn) [Example 45, tert-butyl 2-(5-chloro-3-fluoropyridin-2-yl)-2-((2S,4R)-4-(2-chloro-4-(1-methyl-1H-pyrazol-4-yl)phenylsulfonyl)-2-(1-cyanocyclopropylcarbamoyl)pyrrolidine-1-carbonyl)azetidine-1-carboxylate]: the IC50 against human Cat L (pH 6.5) came out at 625 nM; against human Cat S (pH 6.5) it was 0.965 nM.

Consider `Cn1cc(-c2ccc(S(=O)(=O)[C@@H]3C[C@@H](C(=O)NC4(C#N)CC4)N(C(=O)C4(c5ncc(Cl)cc5F)CCN4)C3)c(Cl)c2)cn1` (stereo partly drawn) [Example 47, (2S,4R)-1-[2-(5-Chloro-3-fluoro-pyridin-2-yl)-azetidine-2-carbonyl]-4-[2-chloro-4-(1-methyl-1H-pyrazol-4-yl)-benzenesulfonyl]-pyrrolidine-2-carboxylic acid (1-cyano-cyclopropyl)-amide hydrochloride], for which the IC50 on human Cat L (pH 6.5) is 82.1 nM; against human Cat S (pH 6.5), 0.791 nM.

For `Cn1cc(-c2ccc(S(=O)(=O)[C@@H]3C[C@@H](C(=O)NC4(C#N)CC4)N(C(=O)C4(c5ncc(Br)cc5F)CCN4)C3)c(Cl)c2)cn1` (stereo partly drawn) [Example 48, (2S,4R)-1-[2-(5-Bromo-3-fluoro-pyridin-2-yl)-azetidine-2-carbonyl]-4-[2-chloro-4-(1-methyl-1H-pyrazol-4-yl)-benzenesulfonyl]-pyrrolidine-2-carboxylic acid (1-cyano-cyclopropyl)-amide hydrochloride], the IC50 is 98.9 nM at human Cat L (pH 6.5) and 1.85 nM against human Cat S (pH 6.5).

Take `C[C@H](Oc1ccc(S(=O)(=O)[C@@H]2C[C@@H](C(=O)NC3(C#N)CC3)N(C(=O)C3(c4ncc(Br)cc4F)CN(CC(F)F)C3)C2)c(Cl)c1)C(F)(F)F` [Example 49, (2S,4R)-1-[3-(5-Bromo-3-fluoro-pyridin-2-yl)-1-(2,2-difluoro-ethyl)-azetidine-3-carbonyl]-4-[2-chloro-4-((S)-2,2,2-trifluoro-1-methyl-ethoxy)-benzenesulfonyl]-pyrrolidine-2-carboxylic acid (1-cyano-cyclopropyl)-amide]: the IC50 against human Cat L (pH 6.5) was determined as 5 nM; against human Cat S (pH 6.5), 1 nM.

As for `C[C@H](Oc1ccc(S(=O)(=O)[C@@H]2C[C@@H](C(=O)NC3(C#N)CC3)N(C(=O)C3(c4ncc(Br)cc4F)CN(C=O)C3)C2)c(Cl)c1)C(F)(F)F` [Example 50, (2S,4R)-1-[3-(5-Bromo-3-fluoro-pyridin-2-yl)-1-formyl-azetidine-3-carbonyl]-4-[2-chloro-4-((S)-2,2,2-trifluoro-1-methyl-ethoxy)-benzenesulfonyl]-pyrrolidine-2-carboxylic acid (1-cyano-cyclopropyl)-amide], the IC50 at human Cat L (pH 6.5) is 5 nM; against human Cat S (pH 6.5) it was 0.9 nM.

Take `COC(=O)N1CC(C(=O)N2C[C@H](S(=O)(=O)c3ccc(O[C@@H](C)C(F)(F)F)cc3Cl)C[C@H]2C(=O)NC2(C#N)CC2)(c2ncc(Br)cc2F)C1` [Example 51, 3-(5-Bromo-3-fluoro-pyridin-2-yl)-3-[(2S,4R)-4-[2-chloro-4-((S)-2,2,2-trifluoro-1-methyl-ethoxy)-benzenesulfonyl]-2-(1-cyano-cyclopropylcarbamoyl)-pyrrolidine-1-carbonyl]-azetidine-1-carboxylic acid methyl ester]: the IC50 at human Cat L (pH 6.5) worked out at 7 nM; against human Cat S (pH 6.5) it was 2 nM.

For `C[C@H](Oc1ccc(S(=O)(=O)[C@@H]2C[C@@H](C(=O)NC3(C#N)CC3)N(C(=O)C3(c4ncc(Br)cc4F)CN(CC(F)(F)F)C3)C2)c(Cl)c1)C(F)(F)F` [Example 52, (2S,4R)-1-[3-(5-Bromo-3-fluoro-pyridin-2-yl)-1-(2,2,2-trifluoro-ethyl)-azetidine-3-carbonyl]-4-[2-chloro-4-((S)-2,2,2-trifluoro-1-methyl-ethoxy)-benzenesulfonyl]-pyrrolidine-2-carboxylic acid (1-cyano-cyclopropyl)-amide], the IC50 on human Cat L (pH 6.5) was 6 nM; against human Cat S (pH 6.5), 1 nM.
